From US20250332173A1, “COMPOUNDS AND METHODS FOR MODULATING NUCLEIC ACID SPLICING” (REMIX THERAPEUTICS INC., priority 2021, published 2025)
Where two headings read alike, the source gives them in different places.

Experiments:
[1] = system: MYB; assay: HiBiT protein abundance assay, MYB HiBiT K562 cell line; format: cell-based, human; conditions: HiBiT K562 cell line, 24 hours, top dose 10 μM; read-out: Effect on protein abundance, MYB (IC50 category)
In short: (§1)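 Endogenous targets in K562 knock-in lines carried a HiBiT tag and were treated for 24 h at 37 °C with 10-point 3-fold dilutions (top 10 μM final, DMSO ≤0.25%). Abundance was read as lytic Nano-Glo HiBiT luminescence. IC50 came from a four-parameter logistic fit of normalized response.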

[2] = system: HTT; assay: HiBiT protein abundance assay, HTT HiBiT K562 cell line; format: cell-based, human; conditions: HiBiT K562 cell line, 24 hours, top dose 10 μM; read-out: Effect on protein abundance, HTT (IC50 category)
In short: as §1

[3] = system: Target C; assay: HiBiT protein abundance assay, Target C (Promega Nano-Glo HiBiT Lytic Detection System, knock-in K562 cell line); format: cell-based, human; conditions: HiBiT K562 cell line, 24 hours, top dose 10 μM, read-out: Effect on protein abundance, Target C (IC50 category)
In short: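 HiBiT knock-in K562 cells (10,000/well) were treated for 24 h at 37 °C with a 10-point 3-fold dilution series, top final concentration 10 μM, DMSO ≤0.25%. Lytic HiBiT luminescence was read, normalized to unmodified K562 and DMSO-treated controls, and IC50 was interpolated from a four-parameter logistic fit.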

[4] = system: K562 (human chronic myelogenous leukemia) cells; assay: Cell Titer Glo 2.0 cell viability assay; format: cell-based; conditions: Homo sapiens, K562, 72 h, K562 cells, 72 hours, Cell Titer Glo 2.0; read-out: K562 GI50

| IC50 [1] [nM] | IC50 [2] [nM] | IC50 ([3]; Homo sapiens, K562, 24 h) [nM] | GI50 [4] [nM] | IC50 [3] [nM] | Compound |
| --- | --- | --- | --- | --- | --- |
| < 100 | < 100 | < 100 | < 100 |  | Cc1cn2nc(-c3cc(F)c4c(=O)n(C5CCNCC5)cnc4c3)cc(C)c2n1 [Compound 243] |
| > 10000 | > 10000 | > 10000 | > 10000 |  | Cc1cn2cc(-c3ccc4c(=O)n(C5CCNCC5)cnc4c3)c(C)cc2n1 [Compound 244] |
| 100 to 1000 | 100 to 1000 | 100 to 1000 | 100 to 1000 |  | Cc1nc2c(F)cc(-c3ccc4c(=O)n(C5CCNCC5)cnc4c3)cc2o1 [Compound 245] |
| 1000 to 10000 | 1000 to 10000 | 1000 to 10000 | 1000 to 10000 |  | Cc1cn2cc(-c3ccc4c(=O)n(C5CCN(C)CC5)cnc4c3)c(C)cc2n1 [Compound 246] |
| 100 to 1000 | 100 to 1000 | 1000 to 10000 | 100 to 1000 |  | Cc1cn2cc(-c3ccc4c(c3)CCN(C3CCNCC3)C4=O)cc(F)c2n1 [Compound 247] |
| < 100 | < 100 | 100 to 1000 | < 100 |  | Cc1cn2cc(-c3ccc4c(=O)n(C5CCNCC5)ncc4c3)cc(F)c2n1 [Compound 248] |
| 1000 to 10000 | 1000 to 10000 | 1000 to 10000 | 1000 to 10000 |  | Cn1cc2cc(-c3ccc4c(=O)n(C5CCNCC5)ncc4c3)cc(F)c2n1 [Compound 249] |
| < 100 | < 100 | 100 to 1000 | < 100 |  | Cc1nc2c(F)cc(-c3ccc4c(=O)n(C5CCNCC5)ncc4c3)cc2o1 [Compound 250] |
| 100 to 1000 | 100 to 1000 | 100 to 1000 | 1000 to 10000 |  | Cc1cc(-c2ccc3c(=O)n(C4CCNCC4)ncc3c2)cc2cn(C)nc12 [Compound 251] |
| 1000 to 10000 | > 10000 | > 10000 | 1000 to 10000 |  | Cc1cn2cc(-c3ccc4c(c3)CCN(C3CCNCC3)C4=O)cc(C(F)(F)F)c2n1 [Compound 252] |
| 1000 to 10000 | 1000 to 10000 | 1000 to 10000 | 100 to 1000 |  | Cc1nc2c(F)cc(-c3ccc4c(=O)n(C5CCNCC5)ncc4c3)cc2s1 [Compound 253] |
| 1000 to 10000 | 1000 to 10000 | 1000 to 10000 | 1000 to 10000 |  | Cc1cn2cc(-c3ccc4c(=O)n(C5CCNCC5)ncc4c3)c(C)cc2n1 [Compound 254] |
| > 10000 | > 10000 | > 10000 | 100 to 1000 |  | Cc1cn2cc(-c3ccc4c(=O)n(C5CCNCC5)ncc4c3)ncc2n1 [Compound 255] |
| 100 to 1000 | 100 to 1000 | 100 to 1000 | < 100 |  | Cc1cn2cc(-c3ccc4c(=O)n(C5CCNCC5)ncc4c3)cc(Cl)c2n1 [Compound 256] |
| 100 to 1000 | 100 to 1000 | 100 to 1000 | < 100 |  | Cc1cn2cc(-c3ccc4c(=O)n(C5CCNCC5)ncc4c3)cc(C)c2n1 [Compound 257] |
| 100 to 1000 | 100 to 1000 | 100 to 1000 | 100 to 1000 |  | Cc1cn2nc(-c3ccc4c(=O)n(C5CCNCC5)ncc4c3)nc2c(C)n1 [Compound 259] |
| 100 to 1000 | 100 to 1000 | 1000 to 10000 | 100 to 1000 |  | Cc1cn2nc(-c3ccc4c(=O)n(C5CCNCC5)ncc4c3)cc2c(C)n1 [Compound 260] |
| > 10000 | > 10000 | > 10000 | > 10000 |  | O=c1c2ccc(-c3cn[nH]c3)cc2cnn1C1CCNCC1 [Compound 261] |
| 100 to 1000 | 1000 to 10000 | 1000 to 10000 | 100 to 1000 |  | Cc1cn2cc(-c3ccc4c(=O)n(C5CCNCC5)ncc4c3)cc(C(F)(F)F)c2n1 [Compound 262] |
| > 10000 | > 10000 | 1000 to 10000 | 1000 to 10000 |  | Cn1cc2ccc(-c3ccc4c(=O)n(C5CCNCC5)ncc4c3)cc2n1 [Compound 263] |
| 1000 to 10000 | 1000 to 10000 | > 10000 | 1000 to 10000 |  | Cc1cn2nc(-c3ccc4c(=O)n(C5CCNC5)ncc4c3)cc(C)c2n1 (centres unmarked) [Compound 264] |
| 100 to 1000 | < 100 | 100 to 1000 | 100 to 1000 |  | Cc1cn2nc(-c3ccc4c(=O)n(C5CCN(C)CC5)ncc4c3)cc(C)c2n1 [Compound 265] |
| 100 to 1000 | < 100 |  | 100 to 1000 | 100 to 1000 | Cc1cn2nc(-c3ccc4c(=O)n([C@@H]5CCNC6(CC6)C5)cnc4c3)cc(C)c2n1 [Compound 444] |
